The text below walks through data of ChEMBL document CHEMBL1141927, “Quorum sensing in Vibrio harveyi: probing the specificity of the LuxP binding site” (Bioorg Med Chem Lett, 2005).

As a reminder, the EC50 is the concentration that produces a half-maximal response.

This test in a line: Effective concentration to induce a quorum signal in Vibrio harveyi(by binding Lux P protein). The class given is functional.

`CC(=O)C(=O)[C@H](O)[C@H](O)CO`: a half-maximal response (EC50) required 429 µM.

Turning to `CC(=O)C(=O)[C@@H](O)CO`, it took 0.044 µM to reach a half-maximal effect (EC50).

With `CC(=O)C(=O)CCO`, the EC50 was 27 µM.

As to `CC(=O)C(=O)[C@H](O)CO`, the EC50 came out at 84 µM.

Regarding `O=C(CO)[C@@H](O)[C@H](O)CO`, the EC50 was 560 µM.

With `O=C(CO)[C@H](O)[C@H](O)CO`, the EC50 worked out at 108 µM.

`O=C1O[C@H]([C@@H](O)CO)C(O)=C1O` [ASCORBIC ACID] came in with an EC50 of 737 µM.
